Patent US8871783B2, “Substituted 2-aza-bicyclo[2.2.1]heptane-3-carboxylic acid (cyano-methyl)-amides inhibitors of cathepsin C” (Boehringer Ingelheim International GmBh, priority 2013, dated 2014)

These molecules were tested against recombinant human DPPI (Homo sapiens (Human), UniProt P53634) (assay: Inhibition of Human DPPI (Cathepsin C)). Conditions: substrate Gly-Arg-AMC 50 μM, MES buffer pH 6.0, fluorescence.
Assay type: biochemical
Description: Inhibition of Human DPPI (Cathepsin C)
Materials: Microtiterplates (Optiplate-384 F) were purchased from PerkinElmer (Prod. No. 6007270). The substrate Gly-Arg-AMC was from Biotrend (Prod.-No. 808756 Custom peptide). Bovine serum albumin (BSA; Prod. No. A3059) and Dithiothreitol (DTT; Prod. No D0632) were from Sigma. TagZyme buffer was from Riedel-de-Haen (Prod.-No. 04269), NaCl was from Merck (Prod.-No. 1.06404.1000) and morpholinoethane sulfonic acid (MES), was from Serva (Prod.-No. 29834). The DPP1 inhibitor Gly-Phe-DMK was purchased from MP Biomedicals (Prod.-No. 03DK00625). The recombinant human DPPI was purchased from Prozymex. All other materials were of highest grade commercially available.
The following buffers were used: MES buffer: 25 mM MES, 50 mM NaCl, 5 mM DTT, adjusted to pH 6.0, containing 0.1% BSA; TAGZyme Buffer: 20 mM NaH2PO4, 150 mM NaCl adjusted to pH 6.0 with HCl
Assay conditions: The recombinant human DPPI was diluted in TAGZyme buffer to 1 U/ml (38.1 μg/ml, respectively), and then activated by mixing in a 1:2 ratio with a Cysteamine aqueous solution (2 mM) and incubating for 5 min at room temperature.
Five uL test compound (final concentration 0.1 nM to 100 μM) in aqua bidest (containing 4% DMSO, final DMSO concentration 1%) were mixed with 10 μL of DPPI in MES buffer (final concentration 0.0125 ng/μL) and incubated for 10 min. Then, 5 μL of substrate in MES buffer (final concentration 50 μM) were added. The microtiter plates were then incubated at room temperature for 30 min. Then, the reaction was stopped by adding 10 μL of Gly-Phe-DMK in MES-buffer (final concentration 1 μM). The fluorescence in the wells was determined using a Molecular Devices SpectraMax M5 Fluorescence Reader (Ex 360 nm, Em 460 nm) or an Envision Fluorescence Reader (Ex 355 nm, Em 460 nm).
Each assay microtiter plate contained wells with vehicle controls (1% DMSO in bidest+0.075% BSA) as reference for non-inhibited enzyme activity (100% Ctl; high values) and wells with inhibitor (Gly-Phe-DMK, in bidest+1% DMSO+0.075% BSA, final concentration 1 μM) as controls for background fluorescence (0% Ctl; low values).
The analysis of the data was performed by calculating the percentage of fluorescence in the presence of test compound in comparison to the fluorescence of the vehicle control after subtracting the background fluorescence using the following formula: (RFU(sample)−RFU(background))*100/(RFU(control)−RFU(background)) […]

Chain of recombinant human DPPI (P53634 231-394): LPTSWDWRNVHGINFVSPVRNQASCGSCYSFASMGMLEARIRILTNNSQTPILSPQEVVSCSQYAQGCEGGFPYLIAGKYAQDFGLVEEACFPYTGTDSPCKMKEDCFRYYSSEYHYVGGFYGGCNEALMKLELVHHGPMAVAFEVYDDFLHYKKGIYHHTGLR
Chain of recombinant human DPPI (P53634 395-463): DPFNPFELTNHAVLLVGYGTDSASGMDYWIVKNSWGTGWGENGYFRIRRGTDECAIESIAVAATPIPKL
Chain of recombinant human DPPI (P53634 25-134): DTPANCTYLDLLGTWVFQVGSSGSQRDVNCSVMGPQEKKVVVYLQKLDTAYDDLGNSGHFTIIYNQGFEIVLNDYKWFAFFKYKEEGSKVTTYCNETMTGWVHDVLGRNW

Ki [nM] | Structure (SMILES)
13.7 | N#Cc1ccc(-c2ccc(C[C@@H](C#N)NC(=O)[C@H]3N[C@@H]4CC[C@H]3C4)s2)cc1F [Example 1]
17.3 | CS(=O)(=O)c1ccc(-c2ccc(C[C@@H](C#N)NC(=O)[C@H]3N[C@@H]4CC[C@H]3C4)s2)cc1 [Example 2]
3.2 | CN1C(=O)Cc2ccc(-c3ccc(C[C@@H](C#N)NC(=O)[C@H]4N[C@@H]5CC[C@H]4C5)s3)cc21 [Example 3]
2.1 | CN1C(=O)C(=O)c2ccc(-c3ccc(C[C@@H](C#N)NC(=O)[C@H]4N[C@@H]5CC[C@H]4C5)s3)cc21 [Example 4]
176 | CN1C(=O)Cc2ccc(-c3ccc(C[C@@H](C#N)NC(=O)[C@H]4N[C@@H]5CC[C@H]4C5)o3)cc21 [Example 5]
64.1 | N#CC(Cc1cc2cc(Br)ccc2o1)NC(=O)[C@H]1N[C@@H]2CC[C@H]1C2 (stereo partly drawn) [Example 6]
39.3 | N#Cc1ccc(-c2ccc3oc(CC(C#N)NC(=O)[C@H]4N[C@@H]5CC[C@H]4C5)cc3c2)cc1F (stereo partly drawn) [Example 7]
104 | CN1C(=O)Cc2ccc(-c3ccc4oc(CC(C#N)NC(=O)[C@H]5N[C@@H]6CC[C@H]5C6)cc4c3)cc21 (stereo partly drawn) [Example 8]
62 | N#CC(Cc1cc2cc(-c3ccccc3)ccc2o1)NC(=O)[C@H]1N[C@@H]2CC[C@H]1C2 (stereo partly drawn) [Example 9]
35.8 | N#CC(Cc1cc2cc(Br)ccc2s1)NC(=O)[C@H]1N[C@@H]2CC[C@H]1C2 (stereo partly drawn) [Example 10]
72.8 | N#CC(Cc1cc2cc(-c3ccccc3)ccc2s1)NC(=O)[C@H]1N[C@@H]2CC[C@H]1C2 (stereo partly drawn) [Example 11]
14.9 | CN1C(=O)Cc2ccc(-c3cnc(CC(C#N)NC(=O)[C@H]4N[C@@H]5CC[C@H]4C5)s3)cc21 (stereo partly drawn) [Example 12]
61.7 | CN1C(=O)Cc2ccc(-c3csc(CC(C#N)NC(=O)[C@H]4N[C@@H]5CC[C@H]4C5)c3F)cc21 (stereo partly drawn) [Example 13]
13.4 | CC(=O)c1ccc(-c2ccc(C[C@@H](C#N)NC(=O)[C@H]3N[C@@H]4CC[C@H]3C4)s2)s1 [Example 14]
41.9 | CN1C(=O)Cc2ccc(-c3csc(CC(C#N)NC(=O)[C@H]4N[C@@H]5CC[C@H]4C5)c3)cc21 (stereo partly drawn) [Example 15]
17.1 | CCn1cc(-c2ccc(C[C@@H](C#N)NC(=O)[C@H]3N[C@@H]4CC[C@H]3C4)s2)cn1 [Example 16]
4.2 | N#C[C@H](Cc1ccc(-c2ccc3c(c2)NC(=O)C3)s1)NC(=O)[C@H]1N[C@@H]2CC[C@H]1C2 [Example 17]
27 | N#C[C@H](Cc1ccc(-c2cnn(CC3CCOCC3)c2)s1)NC(=O)[C@H]1N[C@@H]2CC[C@H]1C2 [Example 18]
37.9 | CN1CCC(c2ccc(C[C@@H](C#N)NC(=O)[C@H]3N[C@@H]4CC[C@H]3C4)s2)CC1 [Example 20]
2.2 | CN1C(=O)Cc2ccc(-c3cc(F)c(CC(C#N)NC(=O)[C@H]4N[C@@H]5CC[C@H]4C5)s3)cc21 (stereo partly drawn) [Example 22]
2.9 | CN1CCN(S(=O)(=O)c2ccc(-c3ccc(C[C@@H](C#N)NC(=O)[C@H]4N[C@@H]5CC[C@H]4C5)s3)cc2)CC1 [Example 23]
21.9 | CC1(C)OC(=O)c2cc(-c3ccc(C[C@@H](C#N)NC(=O)[C@H]4N[C@@H]5CC[C@H]4C5)s3)ccc21 [Example 24]
4 | CC1(C)OC(=O)c2ccc(-c3ccc(C[C@@H](C#N)NC(=O)[C@H]4N[C@@H]5CC[C@H]4C5)s3)cc21 [Example 25]
16.7 | CS(=O)(=O)c1cccc(-c2ccc(C[C@@H](C#N)NC(=O)[C@H]3N[C@@H]4CC[C@H]3C4)s2)c1 [Example 26]
